Data reported in patent US20100267561A1, “HERBICIDAL PYRIDAZINONE DERIVATIVES” (priority 2007, published 2010).
Read-outs that look alike come from different tables or passages of the source.

Experiments:
Assay in all cases: Test B pre-/postemergence plant response
Format in all cases: in vivo
[1] = system: morningglory (Ipomoea coccinea); conditions: Ipomoea, read-out: Plant response rating, Morningglory; for pest or weed control at 16 g/ha: 16 g ai/ha; for pest or weed control at 31 g/ha: 31 g ai/ha, 100 complete control; for pest or weed control at 62 g/ha: 62 g ai/ha; for pest or weed control at 125 g/ha: 125 g ai/ha
Text: (§1) Seeds of plant species selected from blackgrass (Alopecurus myosuroides), downy bromegrass (Bromus tectorum), green foxtail (Setaria viridis), Italian ryegrass (Lolium multiflorum), wheat (Triticum aestivum), wild oat (Avena fatua), catchweed bedstraw (Galium aparine), bermudagrass (Cynodon dactylon), surinam grass (Brachiaria decumbens), cocklebur (Xanthium strumarium), corn (Zea mays), large crabgrass (Digitaria sanguinalis), woolly cupgrass (Eriochloa villosa), giant foxtail (Setaria faberii), goosegrass (Eleusine indica), johnsongrass (Sorghum halepense), kochia (Kochia scoparia), lambsquarters (Chenopodium album), morningglory (Ipomoea coccinea), eastern black (E.B.) nightshade (Solanum ptycanthum), yellow nutsedge (Cyperus esculentus), pigweed (Amaranthus retroflexus), common ragweed (Ambrosia elation), Russian thistle (Salsola iberica), soybean (Glycine max), common (oilseed) sunflower (Helianthus annuus), and velvetleaf (Abutilon theophrasti) were planted and treated preemergence with test chemicals formulated in a non-phytotoxic solvent mixture which included a surfactant.
(§2) At the same time, plants selected from these crop and weed species and also winter barley (Hordeum vulgare), canarygrass (Phalaris minor), chickweed (Stellaria media) and windgrass (Apera spica-venti) were treated with postemergence applications of some of the test chemicals formulated in the same manner. Plants ranged in height from 2 to 18 cm (1- to 4-leaf stage) for postemergence treatments.
(§3) Plant species in the flooded paddy test consisted of rice (Oryza sativa), umbrella sedge (Cyperus difformis), ducksalad (Heteranthera limosa) and barnyardgrass (Echinochloa crus-galli) grown to the 2-leaf stage for testing. At time of treatment, test pots were flooded to 3 cm above the soil surface, treated by application of test compounds directly to the paddy water, and then maintained at that water depth for the duration of the test. Treated plants and controls were maintained in a greenhouse for 13 to 15 days, after which time all species were compared to controls and visually evaluated. Plant response ratings, summarized in Table B, are based on a scale of 0 to 100 where 0 is no effect and 100 is complete control. A dash (-) response means no test result.

[2] = system: wheat (Triticum aestivum); conditions: Triticum aestivum, read-out: Plant response rating, Wheat; for plant injury at 16 g/ha: 16 g ai/ha; for plant injury at 31 g/ha: 31 g ai/ha, 100 complete control; for plant injury at 62 g/ha: 62 g ai/ha; for plant injury at 125 g/ha: 125 g ai/ha
Text: as §1, §2, §3

wild oat (Avena fatua) = conditions: Avena fatua, read-out: Plant response rating, Oat, Wild; for pest or weed control at 16 g/ha: 16 g ai/ha; for pest or weed control at 31 g/ha: 31 g ai/ha, 100 complete control; for pest or weed control at 62 g/ha: 62 g ai/ha; for pest or weed control at 125 g/ha: 125 g ai/ha
Text: as §1, §2, §3

[3] = system: velvetleaf (Abutilon theophrasti); conditions: Abutilon theophrasti, read-out: Plant response rating, Velvetleaf; for pest or weed control at 16 g/ha: 16 g ai/ha; for pest or weed control at 31 g/ha: 31 g ai/ha, 100 complete control; for pest or weed control at 62 g/ha: 62 g ai/ha; for pest or weed control at 125 g/ha: 125 g ai/ha
Text: as §1, §2, §3

[4] = system: large crabgrass (Digitaria sanguinalis); conditions: Digitaria sanguinalis, read-out: Plant response rating, Crabgrass, Large; for pest or weed control at 16 g/ha: 16 g ai/ha; for pest or weed control at 31 g/ha: 31 g ai/ha, 100 complete control; for pest or weed control at 62 g/ha: 62 g ai/ha; for pest or weed control at 125 g/ha: 125 g ai/ha
Text: as §1, §2, §3

[5] = system: green foxtail (Setaria viridis); conditions: Setaria viridis, read-out: Plant response rating, Foxtail, Green; for pest or weed control at 16 g/ha: 16 g ai/ha; for pest or weed control at 31 g/ha: 31 g ai/ha, 100 complete control
Text: as §1, §2, §3

[6] = post-emergence, Postemergence, scale 0 to 100
[7] = post-emergence, Postemergence, scale 0 to 100, 0 no effect
[8] = pre-emergence, Preemergence, scale 0 to 100 (0 no effect, 100 complete control)
[9] = pre-emergence, Preemergence, 0 to 100 scale, 0 no effect
[10] = pre-emergence, Preemergence, scale 0 to 100

Structure (SMILES): CCc1cc(-c2ccc(C(F)(F)F)cc2)nn1-c1c(O)cnn(C)c1=O [Compound 11, 4-[5-ethyl-3-[4-(trifluoromethyl)phenyl]-1H-pyrazol-1-yl]-5-hydroxy-2-methyl-3(2H)-pyridazinone]
- pest or weed control at 16 g/ha [1, 6]: 0%
- pest or weed control at 31 g/ha [1, 7]: 0%
- pest or weed control at 62 g/ha [1, 6]: 0%
- pest or weed control at 125 g/ha [1, 6]: 0%
- pest or weed control at 16 g/ha [1, 8]: 0%
- pest or weed control at 31 g/ha [1, 9]: 0%
- pest or weed control at 62 g/ha [1, 10]: 0%
- pest or weed control at 125 g/ha [1, 10]: 0%
- plant injury at 16 g/ha [2, 6]: 90%
- plant injury at 31 g/ha [2, 7]: 100%
- plant injury at 62 g/ha [2, 6]: 100%
- plant injury at 125 g/ha [2, 6]: 100%
- plant injury at 16 g/ha [2, 8]: 90%
- plant injury at 31 g/ha [2, 9]: 95%
- plant injury at 62 g/ha [2, 10]: 95%
- plant injury at 125 g/ha [2, 10]: 100%
- pest or weed control at 16 g/ha (wild oat (Avena fatua); [6]): 100%
- pest or weed control at 31 g/ha (wild oat (Avena fatua); [7]): 100%
- pest or weed control at 62 g/ha (wild oat (Avena fatua); [6]): 100%
- pest or weed control at 125 g/ha (wild oat (Avena fatua); [6]): 100%
- pest or weed control at 16 g/ha (wild oat (Avena fatua); [8]): 80%
- pest or weed control at 31 g/ha (wild oat (Avena fatua); [9]): 98%
- pest or weed control at 62 g/ha (wild oat (Avena fatua); [10]): 98%
- pest or weed control at 125 g/ha (wild oat (Avena fatua); [10]): 100%
- pest or weed control at 16 g/ha [3, 6]: 0%
- pest or weed control at 31 g/ha [3, 7]: 0%
- pest or weed control at 62 g/ha [3, 6]: 0%
- pest or weed control at 125 g/ha [3, 6]: 0%
- pest or weed control at 16 g/ha [3, 8]: 0%
- pest or weed control at 31 g/ha [3, 9]: 0%
- pest or weed control at 62 g/ha [3, 10]: 0%
- pest or weed control at 125 g/ha [3, 10]: 0%
- pest or weed control at 16 g/ha [4, 6]: 98%
- pest or weed control at 31 g/ha [4, 7]: 100%
- pest or weed control at 62 g/ha [4, 6]: 100%
- pest or weed control at 125 g/ha [4, 6]: 100%
- pest or weed control at 16 g/ha [4, 8]: 90%
- pest or weed control at 31 g/ha [4, 9]: 90%
- pest or weed control at 62 g/ha [4, 10]: 100%
- pest or weed control at 125 g/ha [4, 10]: 100%
- pest or weed control at 16 g/ha [5, 6]: 85%
- pest or weed control at 31 g/ha [5, 7]: 100%
- pest or weed control at 62 g/ha ([5]; post-emergence, Postemergence, 62 g ai/ha, scale 0 to 100): 100%
- pest or weed control at 125 g/ha ([5]; post-emergence, Postemergence, 125 g ai/ha, scale 0 to 100): 100%
- pest or weed control at 16 g/ha [5, 8]: 100%
- pest or weed control at 31 g/ha [5, 9]: 100%
